# Reference: paper PMC3715890, “A Cyclic Peptide Inhibitor of HIF-1 Heterodimerization That Inhibits Hypoxia Signaling in Cancer Cells” (Journal of the American Chemical Society, 2013)
# “Also recorded” adds a separate entry of the source.
# What was measured:
# MCF-7 cells [1] = test: CyQUANT cell proliferation assay, MCF-7; type: cell-based; settings: 100 μM, 72 h
# Experimental: Sulforhodamine B cytotoxicity assay […]
# incubated in hypoxia for 24h.
# O.D. value of the experimental set.
# CyQUANT cell proliferation assay
# The cells were incubated for 5 hours and then treated with Tamoxifen or P1. After 24, 48 or 72 hours, the media was […]
# C35006) following the manufacturers instructions. Fluorescence measurements were […]
# Workman, P.; Ashcroft, M. Cancer Res 2005, 65, 4918.
# [2] = biological target: T1, His-HIF-1α1–350 with GST-HIF-1β1–474 (Homo sapiens, UniProt Q16665); test: ELISA of HIF-1 dimerization; type: biochemical; settings: 10 nM to 500 μM, pH 7.5, 30 min preincubation, room temperature, absorbance 450 nm, read-out: IC50, disruption of HIF-1 dimerization
# T1 construct: heterodimerization of His-HIF-1α1–350 with GST-HIF-1β1–474 analyzed by ELISA; made in house; host or cells: E. coli BL21(DE3)
# Description: We next probed the effect of cyclo-CLLFVY on the interaction of HIF-1α with HIF-1β in vitro. […] Unfortunately, the positively charged Tat-tag of P1 is incompatible with EMSA (interferes with the bandshift of DNA). […] To determine the HIF-1-specificity of cyclo-CLLFVY, we assessed its ability to disrupt HIF-2 dimerization by ELISA. Recombinant His-HIF-2α1–351 was produced and purified, and shown to form functional heterodimers with GST-HIF-1β1–474 by EMSA (Figure S5B).
# HIF-1β1-474, *please note that isoform 3 of HIF-1β was used). The standard protocol for protein expression was followed. Briefly, a 1 % culture in LB was incubated at 37 °C with shaking until OD600 of 0.6 was reached. 0.1 mM IPTG was added and the liquid culture incubated with shaking at 18 °C overnight. Cell pellets were suspended in MHW buffer9 (approximately 4 ml buffer per 1 g cell pellet). Lysozyme (100 µg/ml) was added to the lysate and the solution was incubated with shaking for 20 min at 5 °C. […]
# glycerol) was added to individual wells of a Pierce Ni2+-coated 96-well plate (Thermo Scientific, catalogue no. […] The stated quantity of inhibitor (P1 or P2) was added as a solution in 100 µL of buffer to the desired wells, and the plate incubated at room temperature for 30 minutes. […]
# U2OS cells = settings: 100 μM, hypoxia 24 h
# MCF-7 cells [3] = settings: MCF-7, 100 μM, hypoxia 24 h
# HIF-2α PAS-B = settings: cited from earlier work
# Description: (§1) A homology model of HIF-1α PAS-B mapped onto the NMR s ...
# PAS-B domain of HIF-1α = biological target: T2, PAS-B domain of HIF-1α (Homo sapiens, UniProt Q16665); settings: cited from earlier work
# T2 construct: Per-ARNT-Sim-B (PAS-B, amino acids 235–350) domains; His (N); made in house; host or cells: E. coli BL21(DE3)
# Description: as §1
# HIF-1 = settings: cited from earlier work
# Description: (§2) Inhibition of HIF-1 has long been known to hold much potential for cancer therapy;[14] there are multiple possible points for therapeutic intervention in the hypoxia response network, and molecules that inhibit various components of this diverse pathway have been reported,[15]−[22] but the absolute requirement for the dimerization of HIF-1α and HIF-1β for DNA binding and transcription activity of the HIF-1 complex makes this protein–protein interaction a seemingly optimal point of interception. Several high-throughput screens have been conducted in the effort to identify HIF-1 inhibitors,[15], ...
# HIF-2 = settings: cited from earlier work
# Description: as §2
Compound,viability / proliferation of MCF-7 cells (MCF-7 cells [1]),IC50 [2] [nM],SRB cytotoxicity (U2OS cells),SRB cytotoxicity (MCF-7 cells [3]),targeting of PAS-B domain of HIF-2α (HIF-2α PAS-B),targeting of PAS-B domain of HIF-1α (PAS-B domain of HIF-1α),inhibition of HIF-1 (HIF-1),inhibition of HIF-2 (HIF-2)
"CC(C)C[C@@H]1NC(=O)[C@H](CSSC[C@H](N)C(=O)NCC(=O)N[C@@H](CCCNC(=N)N)C(=O)N[C@@H](CCCCN)C(=O)N[C@@H](CCCCN)C(=O)N[C@@H](CCCNC(=N)N)C(=O)N[C@@H](CCCNC(=N)N)C(=O)N[C@@H](CCC(N)=O)C(=O)N[C@@H](CCCNC(=N)N)C(=O)N[C@@H](CCCNC(=N)N)C(=O)N[C@@H](CCCNC(=N)N)C(=O)N2CCC[C@H]2C(=O)N2CCC[C@H]2C(=O)N[C@@H](CCC(N)=O)C(=O)O)NC(=O)[C@H](Cc2ccc(O)cc2)NC(=O)[C@H](C(C)C)NC(=O)[C@H](Cc2ccccc2)NC(=O)[C@H](CC(C)C)NC1=O [P1, Tat-cyclo-CLLFVY]",did not affect the viability of MCF-7 cells; also recorded: no effect on MCF-7 proliferation,1300,not cytotoxic,not cytotoxic,,,,
acriflavine,,,,,targeted,targeted,nonselectively inhibits both HIF-1 and HIF-2,nonselectively inhibits both HIF-1 and HIF-2
